# The source made the active and inactive calls. No cut-off for these calls is given here.
# Columns and labels:
# [1] = target: Platelet-derived growth factor receptor beta (Homo sapiens) (UniProt P09619); test: Protac activity at PDGFRbeta in human U87 cells assessed as reduction in PDGFRbeta protein level at 10 uM incubated for 72 hrs by Western blot analysis; type: cell-based; design: scale not given: the % may be the effect or the level left
# [2] = Induction of apoptosis in human U87 cells assessed as viable cells at 1 uM incubated for 48 hrs by Annexin-V/PI staining based flow cytometry (Rvb= 93.16%); type: functional, U-87MG ATCC; settings: U-87 MG, read-out: Activity
# [3] = Induction of apoptosis in human U87 cells assessed as late apoptotic cells at 5 uM incubated for 48 hrs by Annexin-V/PI staining based flow cytometry (Rvb= 2.97%); type: functional, U-87MG ATCC
# [4] = Induction of apoptosis in human U87 cells assessed as viable cells at 0.1 uM incubated for 48 hrs by Annexin-V/PI staining based flow cytometry (Rvb= 93.16%); type: functional, U-87MG ATCC; settings: U-87 MG, read-out: Activity
# [5] = Induction of apoptosis in human U87 cells assessed as late apoptotic cells at 20 uM incubated for 48 hrs by Annexin-V/PI staining based flow cytometry (Rvb= 2.97%); type: functional, U-87MG ATCC
# [6] = target: T1, von Hippel-Lindau disease tumor suppressor/Platelet-derived growth factor receptor beta (Homo sapiens) (UniProt P09619+P40337); test: Protac activity at VHL/PDGFRbeta in human U87 cells assessed as reduction in PDGFRbeta protein level at 0.1 to 15 uM incubated for 72 hrs by Western blot analysis; type: cell-based; settings: dose 0.1-15 µM
# T1 sequence (P09619 33-1106 limits assumed): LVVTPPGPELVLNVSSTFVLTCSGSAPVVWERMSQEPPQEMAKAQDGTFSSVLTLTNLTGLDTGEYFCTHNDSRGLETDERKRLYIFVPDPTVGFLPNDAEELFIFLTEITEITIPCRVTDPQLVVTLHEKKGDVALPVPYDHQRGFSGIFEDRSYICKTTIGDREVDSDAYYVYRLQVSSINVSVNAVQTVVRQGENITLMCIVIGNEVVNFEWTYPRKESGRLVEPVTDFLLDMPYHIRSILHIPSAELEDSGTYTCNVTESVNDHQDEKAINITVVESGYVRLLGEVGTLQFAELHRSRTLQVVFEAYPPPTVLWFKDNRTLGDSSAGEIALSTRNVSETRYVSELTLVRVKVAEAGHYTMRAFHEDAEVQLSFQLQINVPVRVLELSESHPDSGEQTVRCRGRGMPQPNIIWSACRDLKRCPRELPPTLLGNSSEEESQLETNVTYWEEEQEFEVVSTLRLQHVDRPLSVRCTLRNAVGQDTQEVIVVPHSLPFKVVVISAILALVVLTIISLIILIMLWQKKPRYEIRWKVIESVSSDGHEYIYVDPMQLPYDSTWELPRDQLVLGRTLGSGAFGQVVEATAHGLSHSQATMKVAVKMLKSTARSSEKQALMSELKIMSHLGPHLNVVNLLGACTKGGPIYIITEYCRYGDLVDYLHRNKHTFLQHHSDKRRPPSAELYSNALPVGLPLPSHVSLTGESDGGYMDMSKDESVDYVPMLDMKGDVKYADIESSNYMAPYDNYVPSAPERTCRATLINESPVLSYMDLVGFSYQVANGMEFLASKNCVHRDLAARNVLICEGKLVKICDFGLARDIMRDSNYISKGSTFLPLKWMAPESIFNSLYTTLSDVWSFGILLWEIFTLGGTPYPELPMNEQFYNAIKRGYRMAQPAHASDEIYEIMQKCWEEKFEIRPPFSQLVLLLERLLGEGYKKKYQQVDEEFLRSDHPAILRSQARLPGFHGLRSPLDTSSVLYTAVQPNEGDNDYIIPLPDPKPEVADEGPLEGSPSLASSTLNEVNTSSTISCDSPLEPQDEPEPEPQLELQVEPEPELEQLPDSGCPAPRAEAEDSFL
# T1 sequence (P40337 whole entry partner): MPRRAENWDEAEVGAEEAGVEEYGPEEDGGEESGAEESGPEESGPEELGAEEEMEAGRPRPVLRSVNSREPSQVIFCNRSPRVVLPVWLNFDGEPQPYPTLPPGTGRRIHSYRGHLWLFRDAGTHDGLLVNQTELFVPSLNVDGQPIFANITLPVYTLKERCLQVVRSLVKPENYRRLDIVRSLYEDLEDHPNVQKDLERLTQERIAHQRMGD
# HEK293 = test: Cytotoxicity against human HEK293 cells assessed as reduction in cell viability at 50 uM incubated for 48 hrs by MTT assay; type: toxicity, cell-based; settings: hek293, 48 h
# [7] = Induction of apoptosis in human U87 cells assessed as early apoptotic cells at 20 uM incubated for 48 hrs by Annexin-V/PI staining based flow cytometry (Rvb= 2.74%); type: functional, U-87MG ATCC
# [8] = Induction of apoptosis in human U87 cells assessed as viable cells at 5 uM incubated for 48 hrs by Annexin-V/PI staining based flow cytometry (Rvb= 93.16%); type: functional, U-87MG ATCC; settings: U-87 MG, read-out: Activity
# [9] = Induction of apoptosis in human U87 cells assessed as necrotic cells at 20 uM incubated for 48 hrs by Annexin-V/PI staining based flow cytometry (Rvb= 1.13%); type: functional, U-87MG ATCC
# U-87MG ATCC [10] = test: Induction of cell cycle arrest in human U87 cells assessed decrease of cells in G2 phase at 1 to 10 uM incubated for 48 hrs by flow cytometry; type: functional, cell-based; settings: dose 1-10 µM
# [11] = Induction of apoptosis in human U87 cells assessed as necrotic cells at 1 uM incubated for 48 hrs by Annexin-V/PI staining based flow cytometry (Rvb= 1.13%); type: functional, U-87MG ATCC
# [12] = Induction of apoptosis in human U87 cells assessed as necrotic cells at 0.1 uM incubated for 48 hrs by Annexin-V/PI staining based flow cytometry (Rvb= 1.13%); type: functional, U-87MG ATCC
# [13] = Induction of apoptosis in human U87 cells assessed as necrotic cells at 10 uM incubated for 48 hrs by Annexin-V/PI staining based flow cytometry (Rvb= 1.13%); type: functional, U-87MG ATCC
# [14] = target: T1, von Hippel-Lindau disease tumor suppressor/Platelet-derived growth factor receptor beta (Homo sapiens); test: Protac activity at VHL/PDGFRbeta in human U87 cells assessed as reduction in PDGFRbeta protein level at 10 uM preincubated with VH032 for 2hrs followed by compound treatment and measured after 48 hrs by Western blot analysis; type: cell-based
# [15] = target: Serine/threonine-protein kinase B-raf (Homo sapiens) (UniProt P15056); test: Protac activity at BRAF in human EA.hy 926 cells assessed decrease in BRAF level at 10 uM incubated for 72 hrs by Western blot analysis; type: cell-based
# Sequence of Serine/threonine-protein kinase B-raf (Homo sapiens) (P15056 whole entry): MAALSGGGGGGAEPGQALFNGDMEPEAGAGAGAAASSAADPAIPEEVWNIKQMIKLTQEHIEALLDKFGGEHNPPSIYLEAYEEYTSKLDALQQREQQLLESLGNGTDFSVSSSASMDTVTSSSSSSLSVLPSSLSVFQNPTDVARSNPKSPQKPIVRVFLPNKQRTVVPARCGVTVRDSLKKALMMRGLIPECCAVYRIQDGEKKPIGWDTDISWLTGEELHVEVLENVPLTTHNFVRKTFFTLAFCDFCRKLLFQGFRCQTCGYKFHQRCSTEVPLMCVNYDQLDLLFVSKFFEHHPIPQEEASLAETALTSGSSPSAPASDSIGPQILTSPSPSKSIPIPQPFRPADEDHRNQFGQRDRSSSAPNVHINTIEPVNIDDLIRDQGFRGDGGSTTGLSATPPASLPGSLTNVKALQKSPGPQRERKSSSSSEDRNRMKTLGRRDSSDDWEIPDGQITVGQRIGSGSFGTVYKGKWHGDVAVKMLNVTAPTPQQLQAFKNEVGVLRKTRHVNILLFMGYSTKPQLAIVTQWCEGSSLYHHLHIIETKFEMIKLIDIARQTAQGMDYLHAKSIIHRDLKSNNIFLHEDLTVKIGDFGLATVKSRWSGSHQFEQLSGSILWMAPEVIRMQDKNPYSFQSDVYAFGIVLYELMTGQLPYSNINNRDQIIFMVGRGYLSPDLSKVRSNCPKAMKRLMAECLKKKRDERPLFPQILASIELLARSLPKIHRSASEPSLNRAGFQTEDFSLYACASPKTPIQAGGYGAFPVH
# [16] = target: T1, von Hippel-Lindau disease tumor suppressor/Platelet-derived growth factor receptor beta (Homo sapiens); test: Protac activity at VHL/PDGFRbeta in human U87 cells assessed as reduction in PDGFRbeta protein level at 10 uM incubated for 4 to 16 hrs by Western blot analysis; type: cell-based; settings: time 4-16 hrs
# [17] = Antiproliferative activity against human U87 cells assessed as reduction in cell viability incubated for 48 hrs by MTT assay; type: functional, cell-based, U-87MG ATCC; settings: U-87 MG
# [18] = target: T1, von Hippel-Lindau disease tumor suppressor/Platelet-derived growth factor receptor beta (Homo sapiens); test: Protac activity at VHL/PDGFRbeta in human U87 cells assessed as reduction in PDGFRbeta protein level at 10 uM preincubated with MG-132 for 2hrs followed by compound treatment and measured after 48 hrs by Western blot analysis; type: cell-based
# [19] = target: Platelet-derived growth factor receptor beta (Homo sapiens) (UniProt P09619); test: Protac activity at PDGFRbeta in human U87 cells assessed as reduction in PDGFRbeta protein level at 0.1 to 10 uM incubated for 48 to 72 hrs by Western blot analysis; type: cell-based; settings: dose 0.1-10 µM, time 48-72 hrs
# [20] = target: T1, von Hippel-Lindau disease tumor suppressor/Platelet-derived growth factor receptor beta (Homo sapiens); test: Protac activity at VHL/PDGFRbeta in human U87 cells assessed as reduction in PDGFRbeta protein level at 10 uM preincubated with Carfilzomib for 2hrs followed by compound treatment and measured after 48 hrs by Western blot analysis; type: cell-based
# [21] = Induction of apoptosis in human U87 cells assessed as viable cells at 10 uM incubated for 48 hrs by Annexin-V/PI staining based flow cytometry (Rvb= 93.16%); type: functional, U-87MG ATCC; settings: U-87 MG, read-out: Activity
# [22] = Induction of apoptosis in human U87 cells assessed as late apoptotic cells at 0.1 uM incubated for 48 hrs by Annexin-V/PI staining based flow cytometry (Rvb= 2.97%); type: functional, U-87MG ATCC
# [23] = Induction of apoptosis in human U87 cells assessed as late apoptotic cells at 1 uM incubated for 48 hrs by Annexin-V/PI staining based flow cytometry (Rvb= 2.97%); type: functional, U-87MG ATCC
# [24] = Induction of apoptosis in human U87 cells assessed as early apoptotic cells at 10 uM incubated for 48 hrs by Annexin-V/PI staining based flow cytometry (Rvb= 2.74%); type: functional, U-87MG ATCC
# [25] = target: T1, von Hippel-Lindau disease tumor suppressor/Platelet-derived growth factor receptor beta (Homo sapiens); test: Protac activity at VHL/PDGFRbeta in human U87 cells assessed as reduction in PDGFRbeta protein level at 10 uM preincubated with sorafenib for 2hrs followed by compound treatment and measured after 48 hrs by Western blot analysis; type: cell-based
# [26] = target: Platelet-derived growth factor receptor beta (Homo sapiens) (UniProt P09619); test: Protac activity at PDGFRbeta in human U87 cells assessed as reduction in PDGFRbeta protein level at 10 uM incubated for 48 hrs by Western blot analysis; type: cell-based
# [27] = target: T1, von Hippel-Lindau disease tumor suppressor/Platelet-derived growth factor receptor beta (Homo sapiens); test: Protac activity at VHL/PDGFRbeta in human U87 cells assessed as reduction in PDGFRbeta protein level at 10 uM preincubated with Leupeptin for 2hrs followed by compound treatment and measured after 48 hrs by Western blot analysis; type: cell-based
# U-87MG ATCC [28] = test: Induction of cell cycle arrest in human U87 cells assessed increase of cells in S phase at 1 to 10 uM incubated for 48 hrs by flow cytometry; type: functional, cell-based; settings: dose 1-10 µM
# [29] = Induction of apoptosis in human U87 cells assessed as early apoptotic cells at 1 uM incubated for 48 hrs by Annexin-V/PI staining based flow cytometry (Rvb= 2.74%); type: functional, U-87MG ATCC
# [30] = target: Platelet-derived growth factor receptor beta (Homo sapiens) (UniProt P09619); test: Protac activity at PDGFRbeta in human U87 cells assessed as increase in VEGFR-2 protein level at 10 uM incubated for 72 hrs by Western blot analysis; type: cell-based
# [31] = Induction of apoptosis in human U87 cells assessed as late apoptotic cells at 10 uM incubated for 48 hrs by Annexin-V/PI staining based flow cytometry (Rvb= 2.97%); type: functional, U-87MG ATCC
# [32] = Induction of apoptosis in human U87 cells assessed as necrotic cells at 5 uM incubated for 48 hrs by Annexin-V/PI staining based flow cytometry (Rvb= 1.13%); type: functional, U-87MG ATCC
# [33] = Induction of apoptosis in human U87 cells assessed as viable cells at 20 uM incubated for 48 hrs by Annexin-V/PI staining based flow cytometry (Rvb= 93.16%); type: functional, U-87MG ATCC; settings: U-87 MG, read-out: Activity
# [34] = Induction of apoptosis in human U87 cells assessed as early apoptotic cells at 5 uM incubated for 48 hrs by Annexin-V/PI staining based flow cytometry (Rvb= 2.74%); type: functional, U-87MG ATCC
# [35] = Induction of apoptosis in human U87 cells assessed as early apoptotic cells at 0.1 uM incubated for 48 hrs by Annexin-V/PI staining based flow cytometry (Rvb= 2.74%); type: functional, U-87MG ATCC
# EA.hy 926 = test: Antiproliferative activity against human EA.hy 926 cells assessed as reduction in cell viability incubated for 48 hrs by MTT assay; type: functional, cell-based; settings: EA.hy 926, 48 h
# HepG2 = test: Antiproliferative activity against human HepG2 cells assessed as reduction in cell viability incubated for 48 hrs by MTT assay; type: functional, cell-based; settings: HepG2, 48 h
# Sequence of Platelet-derived growth factor receptor beta (Homo sapiens) (P09619 whole entry): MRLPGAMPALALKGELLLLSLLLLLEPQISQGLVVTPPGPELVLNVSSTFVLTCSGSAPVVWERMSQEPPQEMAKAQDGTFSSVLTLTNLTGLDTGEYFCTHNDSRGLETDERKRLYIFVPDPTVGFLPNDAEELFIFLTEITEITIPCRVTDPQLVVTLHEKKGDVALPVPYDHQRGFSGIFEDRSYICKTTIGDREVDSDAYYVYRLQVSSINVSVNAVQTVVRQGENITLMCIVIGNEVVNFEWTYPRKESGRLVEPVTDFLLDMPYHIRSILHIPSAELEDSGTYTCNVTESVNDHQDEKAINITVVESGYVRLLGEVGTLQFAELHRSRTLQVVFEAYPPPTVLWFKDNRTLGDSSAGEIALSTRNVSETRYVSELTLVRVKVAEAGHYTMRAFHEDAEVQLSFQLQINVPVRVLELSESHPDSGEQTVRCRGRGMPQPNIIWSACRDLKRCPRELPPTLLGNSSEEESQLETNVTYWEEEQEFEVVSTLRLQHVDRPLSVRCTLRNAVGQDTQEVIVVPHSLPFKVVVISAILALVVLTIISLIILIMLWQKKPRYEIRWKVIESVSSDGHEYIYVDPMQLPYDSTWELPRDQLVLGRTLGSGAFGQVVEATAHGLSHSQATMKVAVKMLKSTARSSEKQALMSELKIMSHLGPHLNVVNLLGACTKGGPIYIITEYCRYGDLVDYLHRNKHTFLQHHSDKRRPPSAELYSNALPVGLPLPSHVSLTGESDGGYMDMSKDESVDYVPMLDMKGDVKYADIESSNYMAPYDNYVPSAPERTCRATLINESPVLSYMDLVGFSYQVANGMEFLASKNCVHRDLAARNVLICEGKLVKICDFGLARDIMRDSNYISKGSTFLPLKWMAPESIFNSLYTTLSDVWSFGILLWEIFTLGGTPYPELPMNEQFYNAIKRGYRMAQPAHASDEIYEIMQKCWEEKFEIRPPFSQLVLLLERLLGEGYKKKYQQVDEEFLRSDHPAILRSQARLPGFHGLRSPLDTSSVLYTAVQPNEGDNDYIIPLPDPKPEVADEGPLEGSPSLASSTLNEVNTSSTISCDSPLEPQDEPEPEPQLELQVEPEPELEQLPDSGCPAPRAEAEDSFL
compound,measurement,setting,value
Cc1ncsc1-c1ccc(CNC(=O)[C@@H]2C[C@@H](O)CN2C(=O)[C@@H](NC(=O)CCCNC(=O)c2cc(Oc3ccc(NC(=O)Nc4ccc(Cl)c(C(F)(F)F)c4)cc3)ccn2)C(C)(C)C)cc1,Activity,[1],> 70%
same,viability at 1 µM,[2],96.2%
same,Activity,[3],1.59%
same,viability at 0.1 µM,[4],95.3%
same,Activity,[5],4.56%
same,Activity,[6],Active
same,Activity,HEK293,Non-Toxic
same,Activity,[7],3.25%
same,viability at 5 µM,[8],96.1%
same,Activity,[9],1.63%
same,Activity,U-87MG ATCC [10],Active
same,Activity,[11],0.49%
same,Activity,[12],0.89%
same,Activity,[13],0.85%
same,Activity,[14],Active
same,Activity,[15],Active
same,Activity,[16],Dose-Dependent Effect
same,IC50,[17],12.3 µM
same,Activity,[18],inactive
same,Activity,[19],Dose-Dependent Effect
same,Activity,[20],Active
same,viability at 10 µM,[21],94.6%
same,Activity,[22],1.82%
same,Activity,[23],1.71%
same,Activity,[24],2.49%
same,Activity,[25],Active
same,Activity,[26],Active
same,Activity,[27],inactive
same,Activity,U-87MG ATCC [28],Active
same,Activity,[29],1.66%
same,Activity,[30],Active
same,Activity,[31],2.03%
same,Activity,[32],0.63%
same,viability at 20 µM,[33],90.6%
same,Activity,[34],1.66%
same,Activity,[35],2.02%
O=C1CCC(N2Cc3c(NC(=O)CCCNC(=O)c4cc(Oc5ccc(NC(=O)Nc6ccc(Cl)c(C(F)(F)F)c6)cc5)ccn4)cccc3C2=O)C(=O)N1 (stereo unspecified),IC50,EA.hy 926,13.4 µM
same,Activity,[1],> 70%
same,Activity,HEK293,Non-Toxic
same,Activity,[19],Dose-Dependent Effect
same,IC50,HepG2,0.039 µM
same,Activity,[26],Active
same,Activity,[30],Active
Cc1ncsc1-c1ccc(CNC(=O)[C@@H]2C[C@H](O)CN2C(=O)[C@@H](NC(=O)CCCNC(=O)c2cc(Oc3ccc(NC(=O)Nc4ccc(Cl)c(C(F)(F)F)c4)cc3)ccn2)C(C)(C)C)cc1,IC50,EA.hy 926,> 50 µM
same,Activity,[6],inactive
same,IC50,[17],20.3 µM
same,IC50,HepG2,> 50 µM
CNC(=O)c1cc(Oc2ccc(NC(=O)Nc3ccc(Cl)c(C(F)(F)F)c3)cc2)ccn1 [SORAFENIB],IC50,EA.hy 926,11 µM
same,Activity,HEK293,Non-Toxic
same,IC50,[17],12.7 µM
same,IC50,HepG2,2.69 µM
O=C(CNc1cccc2c1C(=O)N(C1CCC(=O)NC1=O)C2=O)NCCCCNC(=O)c1cc(Oc2ccc(NC(=O)Nc3ccc(Cl)c(C(F)(F)F)c3)cc2)ccn1 (stereo unspecified),Activity,[1],> 70%
same,Activity,HEK293,Non-Toxic
same,Activity,[19],Dose-Dependent Effect
same,Activity,[26],Active
same,Activity,[30],Active

# Reference: ChEMBL document CHEMBL5236630, “Discovery of selective platelet-derived growth factor receptor-beta (PDGFR-β) bifunctional small-molecule degraders” (Bioorg Med Chem, 2023)
